Reference: PubChem BioAssay (NCI)
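Growth conditions: 96-well plates. Treatment: test compound, 48 hours, 5 concentrations. Analysis: linear interpolation between bracketing concentrations; unreached endpoints set to highest concentration. GI50 = concentration required for 50% inhibition of growth. TGI: total growth inhibition.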

Key:
Test in all cases: DTP human tumour cell line panel, 48 h
COLO 205 colon = tested on: COLO 205 colon
HOP-62 NSCLC = tested on: HOP-62 NSCLC
LOX IMVI melanoma = tested on: LOX IMVI melanoma
MOLT-4 leukemia = tested on: MOLT-4 leukemia
NCI-H23 lung = tested on: NCI-H23 lung
OVCAR-4 ovarian = tested on: OVCAR-4 ovarian
OVCAR-5 ovarian = tested on: OVCAR-5 ovarian
RPMI-8226 leukemia = tested on: RPMI-8226 leukemia
SK-MEL-2 melanoma = tested on: SK-MEL-2 melanoma
SNB-75 CNS = tested on: SNB-75 CNS

Row | Compound | GI50 (COLO 205 colon) [µM] | TGI (COLO 205 colon) [µM] | GI50 (HOP-62 NSCLC) [µM] | TGI (HOP-62 NSCLC) [µM] | GI50 (LOX IMVI melanoma) [µM] | TGI (LOX IMVI melanoma) [µM] | GI50 (MOLT-4 leukemia) [µM] | TGI (MOLT-4 leukemia) [µM] | GI50 (NCI-H23 lung) [µM] | TGI (NCI-H23 lung) [µM] | GI50 (OVCAR-4 ovarian) [µM] | TGI (OVCAR-4 ovarian) [µM] | GI50 (OVCAR-5 ovarian) [µM] | TGI (OVCAR-5 ovarian) [µM] | GI50 (RPMI-8226 leukemia) [µM] | TGI (RPMI-8226 leukemia) [µM] | GI50 (SK-MEL-2 melanoma) [µM] | TGI (SK-MEL-2 melanoma) [µM] | GI50 (SNB-75 CNS) [nM] | TGI (SNB-75 CNS) [µM]
1 | O=[N+]([O-])c1ccccc1/C=N\NC(=S)N/N=C/c1ccccc1[N+](=O)[O-] | 11.3 | > 100 | 5.57 | > 100 | 6.48 | > 100 | 6.47 | > 100 | 10.8 | > 100 | 20.6 | > 100 | 51 | > 100 | 5.91 | > 100 | 6.41 | > 100 | 2210 | 8.75
2 | NCC(=O)Nc1ccc(Cl)cc1C(=O)c1ccc[nH]1 | – | > 100 | – | > 100 | – | > 100 | – | > 100 | – | > 100 | – | > 94.9 | – | > 100 | – | > 100 | – | > 100 | – | > 100
3 | CN1CCN(C2=C(Cl)C(=O)c3ccccc3C2=O)CC1 | 1.51 | 2.9 | 2.04 | 5.12 | 1.6 | 3 | 2.2 | 8.26 | 1.72 | 3.65 | 1.59 | 2.95 | 2.03 | 4.18 | 3.09 | 9.61 | 3.15 | 7.96 | 1910 | 4.91
4 | O=C1NC(c2ccccc2)(c2ccccc2)C(=O)N1CCCCCCN1C(=O)NC(c2ccccc2)(c2ccccc2)C1=O | – | > 100 | – | > 100 | – | > 100 | – | > 100 | – | 91.5 | – | 27.6 | – | > 100 | – | > 100 | – | 66.2 | – | 19.6
5 | O=C(O)CCC(O)=C1S(=O)(=O)OCCOS1(=O)=O | – | > 100 | – | > 100 | – | > 100 | – | > 100 | – | > 100 | – | > 100 | – | > 100 | – | > 100 | – | > 100 | – | > 100
6 | Cn1cc(-c2ccc3c4ccccc4n(C)c3c2)c2ccccc21 | – | > 100 | – | > 100 | – | > 100 | – | > 100 | – | > 100 | – | > 100 | – | > 100 | – | > 100 | – | > 100 | – | > 100
7 | O=C(c1ccc(Cl)cc1Cl)N1CCN(C(=O)c2ccc(Cl)cc2Cl)C1=S | 21 | 37.7 | 23.1 | 66.5 | 17.1 | 30.8 | 20.5 | 43.5 | 19.8 | 43.4 | 25.8 | 80.9 | 21.6 | 60.4 | – | 30.7 | 18.4 | 36.2 | 22300 | 61.7
8 | COc1ccc(C2=Nn3c(nnc3-c3ccc(F)c(Cl)c3)SC2)cc1 | > 100 | > 100 | > 100 | > 100 | > 100 | > 100 | > 100 | > 100 | > 100 | > 100 | > 100 | > 100 | 84.6 | > 100 | > 100 | > 100 | > 100 | > 100 | 63300 | > 100
9 | COc1cc(C[C@H]2COC(=O)[C@]2(O)Cc2ccc(OCc3ccccc3)c(OC)c2)ccc1OCc1ccccc1 | 5.16 | 24.1 | > 100 | > 100 | 35.9 | > 100 | 6.2 | > 100 | 30.6 | > 100 | > 100 | > 100 | > 100 | > 100 | 71.9 | > 100 | > 100 | > 100 | > 100000 | > 100
10 | COC(=O)CNC(=O)C(=O)c1c(O)c(O)c(C(C)C)c2cc(C)c(-c3c(C)cc4c(C(C)C)c(O)c(O)c(C(=O)C(=O)NCC(=O)OC)c4c3O)c(O)c12 | 1.28 | 3.16 | 2.41 | 9.61 | 1.56 | 6.28 | 1.36 | 16 | 1.53 | 6.37 | 1.29 | 4.58 | 1.56 | 9.13 | 2.72 | > 50 | 0.832 | 2.13 | 1610 | 8.5
